Patent US10561638B2, “Methods for treating dependence” (Biotie Therapies, Inc., priority 2007, dated 2020)

Target: T1, bovine dopamine β-hydroxylase (Bos taurus, UniProt P15101)
T1 construct: Bovine DBH from adrenal glands was obtained from Sigma Chemical Co; purchased Sigma Chemicals (St Louis, Mo., USA); host or cells: bovine adrenal glands
T1 sequence (P15101 1-610): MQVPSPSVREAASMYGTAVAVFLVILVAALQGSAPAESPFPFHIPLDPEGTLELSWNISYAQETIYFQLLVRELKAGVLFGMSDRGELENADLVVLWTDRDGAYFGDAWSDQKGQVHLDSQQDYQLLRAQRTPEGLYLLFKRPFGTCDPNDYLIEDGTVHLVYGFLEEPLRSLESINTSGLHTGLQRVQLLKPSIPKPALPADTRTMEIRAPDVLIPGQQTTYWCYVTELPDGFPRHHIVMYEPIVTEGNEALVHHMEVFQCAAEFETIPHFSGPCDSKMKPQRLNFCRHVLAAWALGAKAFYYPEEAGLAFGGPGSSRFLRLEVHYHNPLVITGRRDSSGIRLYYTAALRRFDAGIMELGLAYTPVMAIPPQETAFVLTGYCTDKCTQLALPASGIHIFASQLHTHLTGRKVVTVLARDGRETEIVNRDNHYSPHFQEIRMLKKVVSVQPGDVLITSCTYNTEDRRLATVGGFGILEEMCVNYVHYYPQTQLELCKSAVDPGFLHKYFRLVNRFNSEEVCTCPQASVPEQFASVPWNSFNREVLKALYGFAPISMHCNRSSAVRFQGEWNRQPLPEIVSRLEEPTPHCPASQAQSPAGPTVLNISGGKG
Assay: DBH assay, conversion of tyramine to octopamine
Type: biochemical
Protocol: Bovine and human dopamine β-hydroxylase activity were assayed by measuring the conversion of tyramine to octopamine. Bovine adrenal dopamine β-hydroxylase was obtained from Sigma Chemicals (St Louis, Mo., USA) whereas human dopamine β-hydroxylase was purified from the culture medium of the neuroblastoma cell line SK-N-SH. The assay was performed at pH 5.2 and 32° C. in a medium containing 0.125 M NaAc, 10 mM fumarate, 0.5-2 μM CuSO4, 0.1 mg·ml^−1 catalase, 0.1 mM tyramine and 4 mM ascorbate. In a typical assay, 0.5-1 milliunits of enzyme were added to the reaction mixture and, subsequently, a substrate mixture containing catalase, tyramine and ascorbate was added to initiate the reaction (final volume of 200 μl). Samples were incubated with or without the appropriate concentration of nepicastat or Compound B at 37° C. for 30 to 40 minutes. The reaction was quenched by the stop solution containing 25 mM EDTA and 240 μM 3-hydroxytyramine (internal standard). The samples were analyzed for octopamine by reverse phase high pressure liquid chromatography (HPLC) using ultraviolet-detection at […]. The HPLC chromatography run was carried out at the flow rate of 1 ml·min^−1 using a LiChroCART 125-4 RP-18 column and isocratic elution with 10 mM acidic acid, 10 mM 1-heptane sulfonic acid, 12 mM tetrabutyl ammonium phosphate and 10% methanol. The remaining percent activity was calculated based on controls, corrected using internal standards and fitted to a non-linear four-parameter concentration-response curve.
DBH activity was assayed by measuring the conversion of tyramine to octopamine. […] The samples were analyzed for octopamine by reverse phase HPLC using UV detection at […]. The remaining percent activity was calculated based on controls (without inhibitor), corrected using internal standards and fitted to a non-linear 4-parameter concentration-response curve to obtain IC50 values.
An HPLC assay was used to measure DBH activity using tyramine and ascorbate as substrates. […] The samples (150 μl) were loaded to a Gilson autosampler and analyzed by HPLC using UV detection at 280 nm. […]

Fc1cc(F)cc(Cn2cc[nH]c2=S)c1 [SKF-102698, reference compound]
IC50 (0.1 mM tyramine, 4 mM ascorbate, pH 5.2): 0.067 ± 0.0042 µM

Cl.NCc1c[nH]c(=S)n1[C@H]1CCc2c(F)cc(F)cc2C1 [nepicastat, (S)-5-Aminomethyl-1-(5,7-difluoro-1,2,3,4-tetrahydronaphth-2-yl)-2,3-dihydro-2-thioxo-1H-imidazole hydrochloride]
potency of nepicastat relative to Compound B (bovine DBH): 3 fold | potency of nepicastat relative to SKF-102698 (bovine enzyme): 8 fold
